The values that follow come from patent US4209443A, “Process for separating pharmaceutically active diindole alkaloids” (priority 1976, dated 1980).

Structures can show the parent of a compound that is named as a salt. Where only a bound is given, the exact number is not on record here.

The test system of data set [1] is L 1210/VS (vinca-sensitive) mouse lymphoid leukemia. Briefly: Average survival prolongation and tumor-inhibiting effect, L 1210/VS (vinca-sensitive) lymphoid leukemia, i.p. It is filed as in vivo, mouse (BDF1 mice). On the procedure: (§1) The pharmacological tests were performed on transplantable tumors of rats and mice. The effects on L 1210/VS(vinca-sensitive) mouse lymphoid leukemia and L 1210/Ref (vinca-refractory) mouse lymphoid leukemia were tested on BDF1 mice, the effects on Ehrlich ascites carcinomatous tumors and S 37 ascites sarcomatous tumors were examined on Swiss mice, whereas the effects on Novikoff hepatoma were examined on Wistar rats.
(§2) The 4-deacetoxy-vinblastine sulfate was dissolved in physiological saline and the solution was administered intraperitoneally into the animals to be tested. In the tests the average prolongation of survival period and the tumor-inhibiting effect were examined in relation to the untreated controls. In the Table the symbol T/c represents the ratio of treated animals to the controls, and the term "number of limit-days" means the fourfold of the average survival period observed in the control group.

Data set [2] has as its system Novikoff hepatoma. As to the kind of experiment: Average survival prolongation and tumor-inhibiting effect, Novikoff hepatoma, i.p. Format: in vivo, rat (Wistar rats). The conditions noted are these: for On the limit-day (days 36 to day 40): lives / On the limit-day (days 36 to day 40): tumor-free / T/c × 100 / Average survival period, treated: once a day, 8 treatments. On the procedure: as §1, §2

The test system of data set [3] is S 37 ascites sarcoma. As to the kind of experiment: Average survival prolongation and tumor-inhibiting effect, S 37 ascites sarcoma, i.p. It is filed as in vivo, mouse (Swiss mice). The conditions noted are these: once a day, 8 treatments; for Average survival period, treated: control 18.2 days. Here is the method: as §1, §2
Data set [4] relates to L 1210/Ref (vinca-refractory) mouse lymphoid leukemia. Briefly: Average survival prolongation and tumor-inhibiting effect, L 1210/Ref (vinca-refractory) lymphoid leukemia, i.p. It is filed as in vivo, mouse (BDF1 mice). The conditions noted are these: for On the limit-day (days 36 to day 40): lives / On the limit-day (days 36 to day 40): tumor-free / T/c × 100 / Average survival period, treated: 7 treatments; for Average survival period, treated: control 8.0 days. Here is the method: as §1, §2

Data set [5] can be described thus: Neurotoxicity accompanied with paralytic symptoms. Format: in vivo. The conditions noted are these: during administration.
Data set [6] concerns Ehrlich ascites carcinoma. As to the kind of experiment: Average survival prolongation and tumor-inhibiting effect, Ehrlich ascites carcinoma, i.p. Format: in vivo, mouse (Swiss mice). As to conditions: 3.0 mg/kg i.p., once a day, 9 treatments. Here is the method:
as §1, §2

Data set [7] concerns mice. Briefly: Toxicity (LD50, i.p., mice).
Data set [8] concerns transplantable tumors of rats and mice. As to the kind of experiment: Tumor-inhibiting effect on transplantable tumors of rats and mice. Format: in vivo. On the procedure: as §1, §2
For data set [9], the system named is HK/Ly ascites lymphoma. Briefly: Average survival prolongation and tumor-inhibiting effect, HK/Ly ascites lymphoma, i.p. The conditions noted are these: once a day, 8 treatments; for Average survival period, treated: control 14.4 days. It is filed as in vivo. Here is the method:
as §2

The conditions of data set [10]: known vinca alkaloids; cited from earlier work.
Data set [11] in a line: Toxicity (LD50, i.p., mice). As to conditions: mouse, in vivo, ip.
For data set [12], the system named is tumors resistant towards the cytostatic agents known before. The conditions noted are these: Hungarian Patent specification No. 165,986; cited from earlier work.
The nature of data set [13]: in vivo. As to conditions: mouse, ip.
Where [14] appears, read: 0.9 mg/kg i.p., once a day, 7 treatments.
Where [15] appears, read: 1.8 mg/kg i.p., once a day, 7 treatments.
Setting [16] is: 2.0 mg/kg i.p., once a day, 16 treatments.
[17] abbreviates: 4.0 mg/kg i.p., once a day, 16 treatments.
[18] abbreviates: 4.0 mg/kg i.p., once in every two days, 8 treatments.
The mark [19] stands for this setting: 4.0 mg/kg i.p., once in every two days, 11 treatments.
Where [20] appears, read: 5.0 mg/kg i.p., once in every two days, 8 treatments.
Where [21] appears, read: 6.0 mg/kg i.p., once in every two days, 8 treatments.
[22] abbreviates: 4.0 mg/kg i.p., once in every two days.

`CC[C@]1(O)C[C@@H]2CN(CCc3c([nH]c4ccccc34)[C@@](C(=O)OC)(c3cc4c(cc3OC)N(C)[C@@H]3[C@]45CCN4CC=C[C@@](CC)(C[C@]3(O)C(=O)OC)[C@H]45)C2)C1` [4-deacetoxy-vinblastine sulfate, 4-Deacetoxy-vinblastine sulfate]: the “On the limit-day (days 36 to day 40): lives” value (from here on “On the limit-day … lives”) in data set [1] (setting [14]), in data set [1] (setting [15]), in data set [1] (setting [16]), in [1] (setting [17]), in data set [1] (setting [18]) and in [1] (setting [19]) was 0/6 throughout. The “On the limit-day … lives” value is 0/6 in data set [1] (setting [20]); 0/6 in [1] (setting [21]); 0/6 in [2] (0.5 mg/kg i.p.); 1/6 in data set [2] (1.0 mg/kg i.p.); 2/6 in [2] (1.5 mg/kg i.p.); 6/8 in data set [3] (1.8 mg/kg i.p.). In addition, the “On the limit-day … lives” value in [3] (2.7 mg/kg i.p.) is 7/10; in data set [4] (2.0 mg/kg i.p., once a day), 0/6; in [4] (4.0 mg/kg i.p., once a day), 0/6; in data set [4] (setting [22]) it was 0/6; in [6], 10/10; in [9] (2.0 mg/kg i.p.), 0/10. Further, the “On the limit-day … lives” value was 6/10 in [9] (4.0 mg/kg i.p.) and 0/10 in [9] (6.0 mg/kg i.p.). Besides, the “On the limit-day (days 36 to day 40): tumor-free” value (shortened to “On the limit-day … tumor-free”) in [1] (setting [14]), in data set [1] (setting [15]), in data set [1] (setting [16]), in data set [1] (setting [17]), in [1] (setting [18]) and in data set [1] (setting [19]) was 0/6 in each case. Also, the “On the limit-day … tumor-free” value in data set [1] (setting [20]) is recorded as 0/6; in [1] (setting [21]), 0/6; in data set [2] (0.5 mg/kg i.p.), 0/6; in data set [2] (1.0 mg/kg i.p.), 1/6; in data set [2] (1.5 mg/kg i.p.) it was 0/6; in data set [3] (1.8 mg/kg i.p.), 6/8. The “On the limit-day … tumor-free” value is on record as 7/10 in [3] (2.7 mg/kg i.p.); 0/6 in [4] (2.0 mg/kg i.p., once a day); 0/6 in data set [4] (4.0 mg/kg i.p., once a day); 0/6 in [4] (setting [22]); 6/10 in data set [6]; 0/10 in data set [9] (2.0 mg/kg i.p.). Moreover, the “On the limit-day … tumor-free” value in data set [9] (4.0 mg/kg i.p.) and in data set [9] (6.0 mg/kg i.p.) was 0/10 in each case. The “T/c × 100” value was found to be 128 in data set [1] (setting [14]); 128 in data set [1] (setting [15]); 238 in data set [1] (setting [16]); 269 in data set [1] (setting [17]); 213 in data set [1] (setting [18]); 267 in data set [1] (setting [19]). For the same molecule, the “T/c × 100” value in data set [1] (setting [20]) was found to be 251; in [1] (setting [21]), 291; in data set [2] (0.5 mg/kg i.p.), 126; in data set [2] (1.0 mg/kg i.p.), 338; in data set [2] (1.5 mg/kg i.p.), 317; in data set [3] (1.8 mg/kg i.p.), 376. Besides, the “T/c × 100” value was 373 in data set [3] (2.7 mg/kg i.p.); 119 in data set [4] (2.0 mg/kg i.p., once a day); 144 in [4] (4.0 mg/kg i.p., once a day); 146 in data set [4] (setting [22]); 174 in data set [6]; 334 in data set [9] (2.0 mg/kg i.p.). Further, the results for the “T/c × 100” value in data set [9] (4.0 mg/kg i.p.) and in data set [9] (6.0 mg/kg i.p.) were 382 and 328, respectively. Further, the “Average survival period, treated” value in [1] (0.9 mg/kg i.p., once a day, 7 treatments, control 8.8 days) is given as 11.5 days; in data set [1] (1.8 mg/kg i.p., once a day, 7 treatments, control 8.8 days) it was 11.3 days; in [1] (2.0 mg/kg i.p., once a day, 16 treatments, control 10.3 days) it was 24.5 days; in data set [1] (4.0 mg/kg i.p., once a day, 16 treatments, control 10.3 days), 27.7 days; in [1] (4.0 mg/kg i.p., once in every two days, 8 treatments, control 8.3 days) it was 17.7 days; in data set [1] (4.0 mg/kg i.p., once in every two days, 11 treatments, control 10.3 days), 27.5 days. The “Average survival period, treated” value in [1] (5.0 mg/kg i.p., once in every two days, 8 treatments, control 8.3 days) was 20.8 days; in data set [1] (6.0 mg/kg i.p., once in every two days, 8 treatments, control 8.3 days) it was 24.2 days; in data set [2] (0.5 mg/kg i.p., control 8.2 days), 10.3 days; in [2] (1.0 mg/kg i.p., control 8.2 days) it was 27.7 days; in data set [2] (1.5 mg/kg i.p., control 7.8 days), 24.7 days; in data set [3] (1.8 mg/kg i.p.), 68.5 days. For the same molecule, the “Average survival period, treated” value in data set [3] (2.7 mg/kg i.p.) amounted to 67.9 days; in data set [4] (2.0 mg/kg i.p., once a day) it was 9.5 days; in [4] (4.0 mg/kg i.p., once a day), 11.5 days; in data set [4] (setting [22]), 11.7 days; in data set [6] (control 17.4 days) it was 30 days; in [9] (2.0 mg/kg i.p.), 48.1 days. Also, the “Average survival period, treated” value worked out at 55.0 days in data set [9] (4.0 mg/kg i.p.) and 47.2 days in [9] (6.0 mg/kg i.p.). In data set [5], the “Neurotoxicity accompanied with paralytic symptoms” value was “does not appear at all”. For the same molecule, the “toxicity compared with vinblastine” value in [7] (compared with vinblastine) is given as “far less toxic than vinblastine”. In addition, the “tumor-inhibiting effects compared with vinblastine” value in data set [8] (compared with vinblastine) was “roughly identical with those of vinblastine”.

In the case of `CC[C@]1(O)C[C@H]2CN(CCc3c([nH]c4ccccc34)[C@@](C(=O)OC)(c3cc4c(cc3OC)N(C=O)[C@H]3[C@@](O)(C(=O)OC)[C@H](OC(C)=O)[C@]5(CC)C=CCN6CC[C@]43[C@@H]65)C2)C1` [Vincristine, vincristine, reference compound], the “Neurotoxicity accompanied with paralytic symptoms (known side-effect)” value in data set [10] is “characteristic adverse side-effect”. In [11], this molecule showed an LD50 of 4.2 mg/kg.

Consider `CC[C@]12CN3CCc4c([nH]c5ccccc45)[C@@](C(=O)OC)(c4cc5c(cc4OC)N(C=O)[C@H]4[C@@](O)(C(=O)OC)[C@H](OC(C)=O)[C@]6(CC)C=CCN7CC[C@]54[C@@H]76)C[C@@H](C3)[C@H]1O2` [N-Formyl-leurosine, reference compound], for which the “growth inhibition of tumors resistant towards the cytostatic agents known before” value in [12] was “inhibits the growth of tumors resistant towards the cytostatic agents known before”. Besides, in data set [7] (i.p., mice), the LD50 came out at 29.0 mg/kg.

For `CC[C@]1(O)C[C@@H]2CN(CCc3c([nH]c4ccccc34)[C@@](C(=O)OC)(c3cc4c(cc3OC)N(C)[C@H]3[C@@](O)(C(=O)OC)[C@H](OC(C)=O)[C@]5(CC)C=CCN6CC[C@]43[C@@H]65)C2)C1` [Vinblastine, vinblastine], the “Neurotoxicity accompanied with paralytic symptoms (known side-effect)” value in [10] was “characteristic adverse side-effect”. This molecule also gave an LD50 in data set [13] of 7.5 mg/kg.

`CC[C@]1(O)C[C@@H]2CN(CCc3c([nH]c4ccccc34)[C@@](C(=O)OC)(c3cc4c(cc3OC)N(C)[C@@H]3[C@]45CCN4CC=C[C@@](CC)(C[C@]3(O)C(=O)OC)[C@H]45)C2)C1` [4-Deacetoxy-vinblastine, 4-deacetoxy-vinblastine]: the “inhibiting effect on Novikoff hepatoma” value in [2] (relative to the other transplanted tumors) is “most intensive”. The “sensitivity of L 1210/Ref leukemia” value in data set [4] (mouse, in vivo) was “not sensitive”. In addition, the LD50 in [11] is above 23 mg/kg. In data set [8] (all transplanted tumors other than L 1210/Ref), the “inhibiting effect on all the other transplanted tumors” value is “significant dosage-dependent inhibiting effect”.

A word on the LD50: it is the dose expected to kill half of the subjects tested.
